Measurements from PubChem BioAssay AID256 (DTP/NCI, 2004).
Where “and” joins values, the source holds several entries; their conditions need not be identical. Equal entries are not always repeated. Toxic doses and inconclusive results are not listed. How the source made its calls: active means survival T/C of 150% or more; inactive means T/C below 125% in these data.

System: CD2F1 mice, L1210 leukemia ip, survival T/C
Assay: NCI In Vivo Anticancer Drug Screen. Data for tumor model L1210 Leukemia (intraperitoneal) in CD2F1 (CDF1) mice
Details: higher = longer survival
Method in brief: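 Antitumor effect is scored in animals hosting a serially transplanted tumor. Values compare compound-dosed animals against vehicle-only controls as a simple quotient.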

[1] = endpoint: mean survival time, dose: 100.0 mg/kg/injection, schedule: Q01DX009 (ip), vehicle: saline with Tween-80
[2] = endpoint: mean survival time, dose: 200.0 mg/kg/injection, schedule: Q01DX009 (ip), vehicle: saline with Tween-80
[3] = endpoint: mean survival time, dose: 400.0 mg/kg/injection, schedule: Q01DX009 (ip), vehicle: saline with Tween-80
[4] = endpoint: mean survival time, dose: 100.0 mg/kg/injection, schedule: Q04DX003 (ip), vehicle: saline with Tween-80
[5] = endpoint: mean survival time, dose: 200.0 mg/kg/injection, schedule: Q04DX003 (ip), vehicle: saline with Tween-80
[6] = endpoint: mean survival time, dose: 100.0 mg/kg/injection, schedule: Q01DX001 (ip), vehicle: saline
[7] = endpoint: mean survival time, dose: 200.0 mg/kg/injection, schedule: Q01DX001 (ip), vehicle: saline
[8] = endpoint: mean survival time, dose: 400.0 mg/kg/injection, schedule: Q01DX001 (ip), vehicle: saline
[9] = endpoint: mean survival time, dose: 400.0 mg/kg/injection, schedule: Q04DX003 (ip), vehicle: saline with Tween-80
[10] = endpoint: mean survival time, dose: 100.0 mg/kg/injection, schedule: Q01DX001 (ip), vehicle: saline with Tween-80
[11] = endpoint: mean survival time, dose: 200.0 mg/kg/injection, schedule: Q01DX001 (ip), vehicle: saline with Tween-80
[12] = endpoint: mean survival time, dose: 400.0 mg/kg/injection, schedule: Q01DX001 (ip), vehicle: saline with Tween-80
[13] = endpoint: mean survival time, dose: 50.0 mg/kg/injection, schedule: Q01DX009 (ip), vehicle: saline
[14] = endpoint: mean survival time, dose: 100.0 mg/kg/injection, schedule: Q01DX009 (ip), vehicle: saline
[15] = endpoint: mean survival time, dose: 200.0 mg/kg/injection, schedule: Q01DX009 (ip), vehicle: saline
[16] = endpoint: mean survival time, dose: 400.0 mg/kg/injection, schedule: Q01DX009 (ip), vehicle: saline
[17] = endpoint: mean survival time, dose: 25.0 mg/kg/injection, schedule: Q01DX009 (ip), vehicle: saline

Measured: T/C

O=[N+]([O-])c1ccc2nc3c(nc2c1)-c1cccc2cccc-3c12
inactive: [1] 98 % of control | [2] 98 % of control | [3] 98 % of control

N#Cc1ccccc1NC1OCC(O)C(O)C1O (stereo not drawn)
inactive: [1] 95 % of control | [2] 101 % of control | [3] 94 % of control

O=[N+]([O-])c1cccc2c(S(=O)(=O)O)cccc12
inactive: [4] 102 % of control | [5] 98 % of control

CN(C)N=Nc1ccccc1C(=O)NCC(N)=O
inactive: endpoint: mean survival time, dose: 18.75 mg/kg/injection, schedule: Q01DX009 (ip), vehicle: Klucel (hydroxypropylcellulose) (HPC) 103 % of control and 107 % of control | endpoint: mean survival time, dose: 37.5 mg/kg/injection, schedule: Q01DX009 (ip), vehicle: Klucel (hydroxypropylcellulose) (HPC) 115 % of control and 112 % of control

O=C(O)c1cccc2ccc(F)cc12
inactive: endpoint: median survival time, dose: 50.0 mg/kg/injection, schedule: Q04DX002 (ip), vehicle: saline with Tween-80 100 % of control | endpoint: median survival time, dose: 100.0 mg/kg/injection, schedule: Q04DX002 (ip), vehicle: saline with Tween-80 100 % of control | endpoint: median survival time, dose: 200.0 mg/kg/injection, schedule: Q04DX002 (ip), vehicle: saline with Tween-80 100 % of control | endpoint: median survival time, dose: 400.0 mg/kg/injection, schedule: Q04DX002 (ip), vehicle: saline with Tween-80 88 % of control

Brc1ccc2ncc3ccccc3c2c1
inactive: [6] 93 % of control | [7] 98 % of control | [8] 96 % of control

COc1cc(NC(=O)CC(C)=O)cc(OC)c1OC
inactive: [1] 100 % of control | [4] 102 % of control | [2] 100 % of control | [5] 96 % of control | [3] 101 % of control | [9] 96 % of control

O=[N+]([O-])c1ccc(Oc2c(Cl)cc(Cl)c(Cl)c2Cl)c([N+](=O)[O-])c1
inactive: endpoint: mean survival time, dose: 75.0 mg/kg/injection, schedule: Q01DX001 (ip), vehicle: other 100 % of control | endpoint: mean survival time, dose: 150.0 mg/kg/injection, schedule: Q01DX001 (ip), vehicle: other 102 % of control | endpoint: mean survival time, dose: 300.0 mg/kg/injection, schedule: Q01DX001 (ip), vehicle: other 94 % of control

CS(=O)(=O)Cc1cnc(N)nc1-c1ccccc1
inactive: [10] 94 % of control | [11] 97 % of control | [12] 94 % of control

COc1ccc(/C=C2\Oc3cc(O)ccc3C2=O)cc1O
inactive: [10] 96 % of control | [11] 94 % of control | [12] 91 % of control

O=C1OCCO1
inactive: [1] 92 % of control | [2] 95 % of control | [3] 97 % of control

CCCCCCCCCCCCOCC[N+](CCO)(CCO)Cc1ccccc1
inactive: endpoint: mean survival time, dose: 0.25 mg/kg/injection, schedule: Q01DX009 (ip), vehicle: saline 91 % of control | endpoint: mean survival time, dose: 0.5 mg/kg/injection, schedule: Q01DX009 (ip), vehicle: saline 107 % of control | endpoint: mean survival time, dose: 1.0 mg/kg/injection, schedule: Q01DX009 (ip), vehicle: saline 90 % of control | endpoint: mean survival time, dose: 5.0 mg/kg/injection, schedule: Q04DX003 (ip), vehicle: saline 102 % of control | endpoint: mean survival time, dose: 10.0 mg/kg/injection, schedule: Q04DX003 (ip), vehicle: saline 101 % of control | endpoint: mean survival time, dose: 20.0 mg/kg/injection, schedule: Q04DX003 (ip), vehicle: saline 93 % of control

O=c1cc(-c2ccccc2)[nH]c(=S)[nH]1
inactive: [10] 115 % of control | [11] 102 % of control | [12] 97 % of control

COC1C(O)CC(=O)OC(C)C/C=C/C=C/C(OC2CCC(N(C)C)C(C)O2)C(C)CC(CC=O)C1OC1OC(C)C(OC2CC(C)(O)C(O)C(C)O2)C(N(C)C)C1O (stereo not drawn)
inactive: endpoint: mean survival time, dose: 6.3 mg/kg/injection, schedule: Q03HX024 (ip), vehicle: saline 100 % of control | endpoint: mean survival time, dose: 12.5 mg/kg/injection, schedule: Q03HX008 (ip), vehicle: saline 100 % of control | endpoint: mean survival time, dose: 12.5 mg/kg/injection, schedule: Q03HX024 (ip), vehicle: saline 100 % of control | endpoint: mean survival time, dose: 25.0 mg/kg/injection, schedule: Q03HX008 (ip), vehicle: saline 97 % of control | endpoint: mean survival time, dose: 25.0 mg/kg/injection, schedule: Q03HX024 (ip), vehicle: saline 101 % of control | [13] 98 % of control | endpoint: mean survival time, dose: 50.0 mg/kg/injection, schedule: Q03HX008 (ip), vehicle: saline 100 % of control | endpoint: mean survival time, dose: 50.0 mg/kg/injection, schedule: Q03HX024 (ip), vehicle: saline 103 % of control | [6] 102 % of control | [14] 96 % of control | endpoint: mean survival time, dose: 100.0 mg/kg/injection, schedule: Q03HX008 (ip), vehicle: saline 97 % of control | endpoint: mean survival time, dose: 100.0 mg/kg/injection, schedule: Q04DX003 (ip), vehicle: saline 98 % of control | [7] 98 % of control | [15] 102 % of control | endpoint: mean survival time, dose: 200.0 mg/kg/injection, schedule: Q04DX003 (ip), vehicle: saline 100 % of control | [8] 106 % of control | [16] 98 % of control | endpoint: mean survival time, dose: 400.0 mg/kg/injection, schedule: Q04DX003 (ip), vehicle: saline 100 % of control

N#CC(=N)N1CCN(C(=N)C#N)CC1
inactive: endpoint: mean survival time, dose: 25.0 mg/kg/injection, schedule: Q04DX002 (ip), vehicle: saline with Tween-80 93 % of control | endpoint: mean survival time, dose: 50.0 mg/kg/injection, schedule: Q04DX002 (ip), vehicle: saline with Tween-80 86 % of control | [6] 97 % of control

C/C(=N\O)C1(C)CC=CCC1C(=O)O (stereo not drawn)
inactive: [1] 90 % of control | [4] 100 % of control | [2] 93 % of control | [5] 96 % of control | [3] 94 % of control | [9] 94 % of control

CC#CC(C)=O
inactive: [17] 93 % of control | [13] 96 % of control | [14] 97 % of control

CN1CCC(=C(C#N)C#N)CC1
inactive: [17] 103 % of control | [13] 94 % of control | [14] 96 % of control

Cc1cc(NC(=O)Nc2cc(Cl)ccc2C)no1
inactive: endpoint: mean survival time, dose: 50.0 mg/kg/injection, schedule: Q01DX009 (ip), vehicle: Klucel (hydroxypropylcellulose) (HPC) 98 % of control | endpoint: mean survival time, dose: 200.0 mg/kg/injection, schedule: Q01DX009 (ip), vehicle: Klucel (hydroxypropylcellulose) (HPC) 91 % of control

O=C1NC(=O)C(Cc2ccccc2)(Cc2ccccc2)C(=O)N1Cc1ccccc1
inactive: endpoint: mean survival time, dose: 50.0 mg/kg/injection, schedule: Q01DX009 (ip), vehicle: saline with Tween-80 100 % of control | [1] 91 % of control | [2] 100 % of control

NOc1ccc([N+](=O)[O-])cc1[N+](=O)[O-]
inactive: endpoint: mean survival time, dose: 25.0 mg/kg/injection, schedule: Q01DX009 (ip), vehicle: saline with Tween-80 89 % of control

N#CC1C=Cc2ccccc2N1C(=O)Oc1ccccc1 (stereo not drawn)
inactive: [14] 95 % of control | [15] 93 % of control | [16] 89 % of control

CCCN1C(=O)C=CC1=O
inactive: [10] 91 % of control

CN(C)c1ccc(N=Nc2ccccc2)cc1
inactive: endpoint: mean survival time, dose: 31.25 mg/kg/injection, schedule: Q01DX009 (ip), vehicle: saline with Tween-80 98 % of control | endpoint: mean survival time, dose: 62.5 mg/kg/injection, schedule: Q01DX009 (ip), vehicle: saline with Tween-80 96 % of control | endpoint: mean survival time, dose: 62.5 mg/kg/injection, schedule: Q04DX003 (ip), vehicle: saline with Tween-80 93 % of control | endpoint: mean survival time, dose: 125.0 mg/kg/injection, schedule: Q04DX003 (ip), vehicle: saline with Tween-80 95 % of control

O=c1[nH]cc(Cc2cccc(OCc3ccccc3)c2)c(=O)[nH]1
inactive: endpoint: mean survival time, dose: 75.0 mg/kg/injection, schedule: Q01DX001 (ip), vehicle: saline with Tween-80 97 % of control | endpoint: mean survival time, dose: 150.0 mg/kg/injection, schedule: Q01DX001 (ip), vehicle: saline with Tween-80 98 % of control | endpoint: mean survival time, dose: 300.0 mg/kg/injection, schedule: Q01DX001 (ip), vehicle: saline with Tween-80 89 % of control

CNC(=S)NCc1ccc(C(=O)NC(C)C)cc1
inactive: endpoint: mean survival time, dose: 50.0 mg/kg/injection, schedule: Q01DX009 (ip), vehicle: other 97 % of control | endpoint: mean survival time, dose: 100.0 mg/kg/injection, schedule: Q01DX009 (ip), vehicle: other 95 % of control | endpoint: mean survival time, dose: 200.0 mg/kg/injection, schedule: Q01DX009 (ip), vehicle: other 100 % of control | endpoint: mean survival time, dose: 400.0 mg/kg/injection, schedule: Q01DX009 (ip), vehicle: other 91 % of control
